{
  "source": "patent US7704995B2",
  "about": "(Exelixis, Inc., priority 2003, dated 2010)",
  "experiment_in_all_cases": "Kinase specificity assay (33P phosphoryl transfer, LCCA or AlphaScreen)",
  "type_in_all_cases": "biochemical",
  "key": {"[1]": {"target": "T1, MAP4K3 (Homo sapiens, UniProt Q8IVH8)", "T1 sequence (Q8IVH8 1-894)": "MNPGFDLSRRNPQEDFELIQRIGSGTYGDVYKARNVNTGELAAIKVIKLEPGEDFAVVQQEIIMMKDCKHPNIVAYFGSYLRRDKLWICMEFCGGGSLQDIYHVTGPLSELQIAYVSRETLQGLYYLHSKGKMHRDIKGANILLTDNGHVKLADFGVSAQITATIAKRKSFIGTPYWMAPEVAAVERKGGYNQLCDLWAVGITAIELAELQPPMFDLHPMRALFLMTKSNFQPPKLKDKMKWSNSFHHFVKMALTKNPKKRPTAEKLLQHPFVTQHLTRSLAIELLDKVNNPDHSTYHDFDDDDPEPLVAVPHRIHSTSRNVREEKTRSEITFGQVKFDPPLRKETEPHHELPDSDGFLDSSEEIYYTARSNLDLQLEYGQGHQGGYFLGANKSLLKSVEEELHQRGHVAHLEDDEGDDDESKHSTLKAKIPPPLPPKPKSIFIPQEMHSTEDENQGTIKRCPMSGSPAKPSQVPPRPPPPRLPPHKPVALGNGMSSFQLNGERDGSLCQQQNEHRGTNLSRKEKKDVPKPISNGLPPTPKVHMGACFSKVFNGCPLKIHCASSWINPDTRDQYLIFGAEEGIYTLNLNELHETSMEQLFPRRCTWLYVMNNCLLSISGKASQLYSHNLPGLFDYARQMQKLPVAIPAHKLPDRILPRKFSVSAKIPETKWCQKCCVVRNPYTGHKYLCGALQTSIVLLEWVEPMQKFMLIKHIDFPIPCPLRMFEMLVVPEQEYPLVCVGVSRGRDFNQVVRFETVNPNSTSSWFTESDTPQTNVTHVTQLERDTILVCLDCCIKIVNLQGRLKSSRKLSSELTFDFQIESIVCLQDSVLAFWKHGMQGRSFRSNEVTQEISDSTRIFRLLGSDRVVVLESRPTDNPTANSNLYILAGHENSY", "settings": "ATP close to KM; read-out: MAP4K3 inhibition, IC50", "description": "(§1) Kinase activity and compound inhibition are investigated using one or more of the three assay formats described below. The ATP concentrations for each assay are selected to be close to the Michaelis-Menten constant (KM) for each individual kinase. Dose-response experiments are performed at 10 different inhibitor concentrations in a 384-well plate format. The data are fitted to the following four-parameter equation: Y=Min+(Max−Min)/(1+(X/IC50)^H) where Y is the observed signal, X is the inhibitor concentration, Min is the background signal in the absence of enzyme (0% enzyme activity), Max is the signal in the absence of inhibitor (100% enzyme activity), IC50 is the inhibitor concentration at 50% enzyme inhibition and H represents the empirical Hill's slope to measure the cooperativity. Typically H is close to unity. ^33P Phosphoryl Transfer Assay:\n(§2) Greiner 384-well white, clear bottom, high binding plates are coated with 2 μg/well of protein or peptide substrate in a 50 μL volume overnight at ambient temperature. The coating buffer typically contains 40 μg/mL substrate, 22.5 mM Na2CO3, 27.5 mM NaHCO3, 150 mM NaCl and 3 mM NaN3. The coating solution is aspirated and the plates are washed once with 50 μL of assay buffer and padded dry. Subsequently compounds and enzymes are mixed with γ^33P-ATP (3.3 μCi/nmol) in a total volume of 20 uL in suitable assay buffers. The mixture is incubated at ambient temperature for 1.5-2.5 hrs and terminated by aspiration using a Molecular Devices EMBLA 96-head plate washer. The plates are subsequently washed 6-12 times with PBST or TBS buffer. Scintillation fluid (50 μl/well) is then added, the plates are sealed and activity assessed by liquid scintillation spectrometry using a Perkin Elmer MicroBeta TriLux.\n(§3) In the LCCA assays, kinase activity is measured as the percent ATP consumed following the kinase reaction using luciferase-luciferin-coupled chemiluminescence. Greiner 384-well white, clear bottom, medium binding plates are used for LCCA. Briefly, the kinase reaction is initiated by mixing compounds, ATP and kinase in a 20 uL volume. The mixture is incubated at ambient temperature for 2-4 hrs. At the end of the kinase reaction, a 20 uL luciferase-luciferin mix is added and the chemiluminescent signal is read using a Wallac Victor^2 reader. The luciferase-luciferin mix consists of 50 mM HEPES, pH 7.8, 8.5 ug/mL oxalic acid (pH 7.8), 5 (or 50) mM DTT, 0.4% Triton X-100, 0.25 mg/mL coenzyme A, 63 uM AMP, 28 ug/mL luciferin and 40,000 units of light/mL luciferase. For the LCCA assays, total ATP consumption has been standardized to 25-45% and the IC50 values correlates well with those determined by radiometric assays.\n(§4) AlphaScreen technology is a proximity assay which utilizes the increase in fluorescent signal when donor and acceptor beads are close in proximity. Biotinylated poly(Glu,Tyr) 4:1 is used as the kinase substrate, in conjunction with streptavidin-coated donor beads and anti-phosphortyrosine antibody PY100-coated acceptor beads. Upon phosphorylation, the peptide substrate can bind to both donor and acceptor beads giving rise to an increase in fluorescence. Compounds, ATP, biotinylated poly(Glu, Tyr) and kinases are mixed in a volume of 20 uL for 1 hr at ambient temperature using Greiner 384-well white clear bottom medium binding plates. Following incubation a 10 uL solution containing […] AlphaScreen beads, 75 mM Hepes, pH 7.4, 300 mM NaCl, 120 mM EDTA, 0.3% BSA and 0.03% Tween-20 is added to each well. After 2-16 hr incubation of the beads, plates are read in a Perkin Elmer AlphaQuest reader. The IC50 values correlates well with those of radiometric assays."}, "[2]": {"target": "FGFR1 (Homo sapiens, UniProt P11362)", "sequence (P11362 22-822)": "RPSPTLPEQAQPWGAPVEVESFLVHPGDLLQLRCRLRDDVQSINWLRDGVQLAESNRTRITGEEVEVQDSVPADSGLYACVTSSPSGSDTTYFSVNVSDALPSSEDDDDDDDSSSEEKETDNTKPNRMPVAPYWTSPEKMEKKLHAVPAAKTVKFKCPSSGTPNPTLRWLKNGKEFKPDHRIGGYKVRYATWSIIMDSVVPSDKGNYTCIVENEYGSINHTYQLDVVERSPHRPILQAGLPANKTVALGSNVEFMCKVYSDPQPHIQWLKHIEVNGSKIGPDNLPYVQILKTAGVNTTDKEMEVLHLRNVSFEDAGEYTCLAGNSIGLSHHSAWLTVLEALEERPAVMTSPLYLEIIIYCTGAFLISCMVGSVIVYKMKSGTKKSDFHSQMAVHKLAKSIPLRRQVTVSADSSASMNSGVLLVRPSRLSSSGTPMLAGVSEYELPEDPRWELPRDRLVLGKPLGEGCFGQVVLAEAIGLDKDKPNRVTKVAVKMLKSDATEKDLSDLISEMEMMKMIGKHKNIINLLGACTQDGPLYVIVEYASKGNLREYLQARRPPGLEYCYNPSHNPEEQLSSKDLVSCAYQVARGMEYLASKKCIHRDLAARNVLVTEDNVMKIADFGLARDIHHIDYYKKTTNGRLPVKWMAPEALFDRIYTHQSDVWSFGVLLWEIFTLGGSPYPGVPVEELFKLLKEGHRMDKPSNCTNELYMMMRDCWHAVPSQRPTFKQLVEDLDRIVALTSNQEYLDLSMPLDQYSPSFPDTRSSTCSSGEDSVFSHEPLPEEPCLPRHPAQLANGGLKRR", "settings": "ATP close to KM; read-out: FGFR1 inhibition, IC50", "description": "as §1, §2, §3, §4"}, "[3]": {"target": "Cdc2 (Homo sapiens, UniProt P06493)", "sequence (P06493 whole entry)": "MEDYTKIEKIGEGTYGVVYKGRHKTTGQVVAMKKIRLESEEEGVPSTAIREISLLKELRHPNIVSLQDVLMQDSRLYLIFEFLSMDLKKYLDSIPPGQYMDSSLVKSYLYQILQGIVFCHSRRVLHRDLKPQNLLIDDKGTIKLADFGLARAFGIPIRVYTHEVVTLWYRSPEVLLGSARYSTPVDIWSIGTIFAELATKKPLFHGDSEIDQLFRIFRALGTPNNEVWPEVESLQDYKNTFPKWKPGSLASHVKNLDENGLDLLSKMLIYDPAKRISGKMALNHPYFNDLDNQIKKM", "sequence (P14635 whole entry partner)": "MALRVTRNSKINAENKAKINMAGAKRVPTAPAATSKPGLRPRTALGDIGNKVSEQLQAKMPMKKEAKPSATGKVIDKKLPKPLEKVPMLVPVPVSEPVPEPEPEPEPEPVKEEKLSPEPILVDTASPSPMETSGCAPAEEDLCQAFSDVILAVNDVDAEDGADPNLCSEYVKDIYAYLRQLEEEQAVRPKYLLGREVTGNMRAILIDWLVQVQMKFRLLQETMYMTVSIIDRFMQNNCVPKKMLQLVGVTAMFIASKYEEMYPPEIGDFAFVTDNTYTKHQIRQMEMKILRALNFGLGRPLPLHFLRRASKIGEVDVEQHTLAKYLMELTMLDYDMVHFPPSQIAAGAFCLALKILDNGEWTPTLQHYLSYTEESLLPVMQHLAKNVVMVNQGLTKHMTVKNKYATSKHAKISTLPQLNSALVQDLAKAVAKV", "settings": "ATP close to KM; read-out: Cdc2 inhibition, IC50", "description": "as §1, §2, §3, §4"}},
  "data": [
    {"smiles": "NC(=O)c1nc(-c2cccc3ccccc23)cnc1N", "note": "[Example 2, 3-Amino-6-naphthalen-1-ylpyrazine-2-carboxamide]", "values": [
      {"measurement": "IC50", "setting": "[1]", "value": "< 0.05", "unit": "µM"},
      {"measurement": "IC50", "setting": "[2]", "value": "1 to 10", "unit": "µM"},
      {"measurement": "IC50", "setting": "[3]", "value": "≥ 10", "unit": "µM"}
    ]}
  ]
}
